US20260374766A1, “METHODS FOR TREATING CANCER” (Antares Therapeutics, Inc., priority 2022, published 2026)
Where two headings read alike, the source gives them in different places.

How the values were obtained:
H1299 p53 Y220C = assay: Cell Proliferation Assay (CellTiter-Glo, CTG), H1299 p53 Y220C (NClH1299-inducible p53 Y220C); format: cell-based; conditions: Homo sapiens, NCI-H1299, 120 h, NClH1299-inducible p53 Y220C cells, 5 days
How it was run: (§1)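 NClH1299 lines stably transduced with Tet-inducible p53 Y220C or R273H, plus NUGC3, were treated with compound for 5 days at 250-500 cells/well. IC50 derived from CellTiter-Glo luminescent signal after 10 min room-temperature incubation.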

[1] = target: T1, p53 Y220C mutant protein (amino acid residues 94-293) (Homo sapiens, UniProt P04637, Y220C); assay: Surface Plasmon Resonance (SPR) assay, Kd_kinetic; format: binding; conditions: read-out: SPR P53 Y220C KD kinetic
T1 construct: p53 Y220C mutant protein (amino acid residues 94-293)
How it was run: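 Biacore 8K SPR; 16 or 20 °C; Tris 50 mM pH 7.5, NaCl 100 mM, DTT 1 mM, Brij35 0.01%, Tween-20 0.05%, DMSO 1%. Kd_kinetic by 1:1 fit.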

NUGC3 p53 Y220C = assay: Cell Proliferation Assay (CellTiter-Glo, CTG), NUGC3 p53 Y220C; format: cell-based; conditions: Homo sapiens, NUGC-3, 120 h, NUGC3 cells, 5 days
How it was run: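 Tet-One inducible p53 Y220C or R273H constructs were stably introduced into NCI-H1299 by lentiviral transduction; NUGC3 was used as is. Cells (250-500 per well) were exposed to compound for 5 days, then CellTiter-Glo was added for 10 min at room temperature and IC50 was calculated from luminescence.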

p53 Y220C = p53 Y220C (Homo sapiens, UniProt P04637, Y220C); assay: Luciferase Reporter Assay (Luc), p53 response element, NClH1299 cells with inducible p53 Y220C; format: cell-based; conditions: 6 hour; for AC50: read-out: Luc P53 Y220C AC50
How it was run: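 Luciferase activity is measured directly after One-Glo addition and a 5-minute room-temperature shake. Before that, cells plated at 5,000 per well receive doxycycline at 0.5 ug/mL for 24 hours, followed by compound for 6 hours.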

H1299 p53 R273H = assay: Cell Proliferation Assay (CellTiter-Glo, CTG), H1299 p53 R273H (NClH1299-inducible p53 R273H); format: cell-based; conditions: Homo sapiens, NCI-H1299, 120 h, NClH1299-inducible p53 R273H cells, 5 days
How it was run: as §1

[2] = target: T1, p53 Y220C mutant protein (amino acid residues 94-293); assay: Thermal Shift Assay (TSA), dTM; format: binding; conditions: read-out: TSA P53 Y220C dTM; for ΔTm at 10 µM: 10 uM compound
How it was run: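 First, the mutant DNA-binding domain (5 μM) was preincubated 3 hours at 20 °C with compound at 10 μM or 100 μM. Next, the sample was heated from 30 °C to 50 °C at 0.03 °C/second in the presence of Sypro Orange. Finally, TM was obtained from a two-state Boltzmann fit.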

[3] = luciferase reporter, NClH1299 inducible p53 Y220C

IC50 (H1299 p53 Y220C; CellTiter-Glo)	Kd [1]	AC50 (p53 Y220C; [3])	Emax (p53 Y220C; [3])	IC50 (H1299 p53 R273H; CellTiter-Glo)	ΔTm at 10 µM ([2]; p53 Y220C)	Kd ([1]; SPR, p53 Y220C)	IC50 (H1299 p53 Y220C)	AC50 (p53 Y220C; NClH1299 cells with inducible p53 Y220C)	Emax (p53 Y220C; NClH1299 cells with inducible p53 Y220C, 10 uM tool compound as positive control)	IC50 (H1299 p53 R273H)	ΔTm at 10 µM [2]	ΔTm at 100 µM ([2]; 100 uM compound)	SMILES	IC50 (NUGC3 p53 Y220C; CellTiter-Glo)	IC50 (NUGC3 p53 Y220C)
< 750 nM	< 10 nM	< 750 nM	> 90%	5 to 8 µM	≥ 10 °C								COc1cc(S(C)(=O)=O)ccc1NCC#Cc1cc2c(N[C@@H]3CCN(C)C[C@@H]3F)nccn2c1SC(F)(F)F [Example 342]	< 750 nM	
< 750 nM		< 750 nM	> 90%	≥ 10 µM	≥ 10 °C	< 10 nM							CNC(=O)c1ccc(OC)c(NCC#Cc2cc3c(N[C@@H]4CCN(C)C[C@@H]4F)cccn3c2SC(F)F)c1 [Example 343]	< 750 nM	
< 750 nM		< 750 nM	> 90%	5 to 8 µM	≥ 10 °C	< 10 nM							COc1cc(S(C)(=O)=O)ccc1NCC#Cc1cc2c(N[C@@H]3CCN(C)C[C@@H]3F)cccn2c1SC(F)F [Example 344]	< 750 nM	
< 750 nM		< 750 nM	80 to 90%	8 to 10 µM	≥ 10 °C	< 10 nM							CNC(=O)c1ccc(OC)c(NCC#Cc2cc3c(N[C@@H]4CCN(C)C[C@@H]4F)cccn3c2SC(F)(F)F)n1 [Example 345]	< 750 nM	
< 750 nM		< 750 nM	> 90%	8 to 10 µM	≥ 10 °C	< 10 nM							COc1cc(P(C)(C)=O)ccc1NCC#Cc1cc2c(N[C@@H]3CCN(C)C[C@@H]3F)cccn2c1SC(F)(F)F [Example 346]	< 750 nM	
< 750 nM		< 750 nM	> 90%	≥ 10 µM	≥ 10 °C	< 10 nM							CNC(=O)c1cc(F)c(OC)c(NCC#Cc2nc3c(N[C@@H]4CCN(C)C[C@@H]4F)nccn3c2SC(F)(F)F)c1 [Example 347]	< 750 nM	
< 750 nM		< 750 nM	> 90%	≥ 10 µM	≥ 10 °C	< 10 nM							CNC(=O)c1ccc(C(=O)NC)c(NCC#Cc2cc3c(N[C@@H]4CCN(C)C[C@@H]4F)nccn3c2SC(F)(F)F)c1 [Example 348]	< 750 nM	
< 750 nM		< 750 nM	80 to 90%	≥ 10 µM	≥ 10 °C	< 10 nM							COc1cc(P(C)(C)=O)ccc1NCC#Cc1cc2c(N[C@@H]3CCN(C)C[C@@H]3F)cccn2c1SC(F)F [Example 349]	< 750 nM	
< 750 nM	< 10 nM	< 750 nM	> 90%	≥ 10 µM	≥ 10 °C								CNC(=O)c1ccc(NCC#Cc2cc3c(N[C@@H]4CCN(C5COC5)C[C@@H]4F)nccn3c2SC(F)(F)F)c(OC)c1 [Example 350]	< 750 nM	
< 750 nM		< 750 nM	> 90%	≥ 10 µM	≥ 10 °C	< 10 nM							CNC(=O)c1ccc(OC)c(NCC#Cc2cc3c(N[C@@H]4CCN(C5COC5)C[C@@H]4F)nccn3c2SC(F)(F)F)c1 [Example 351]	< 750 nM	
< 750 nM		< 750 nM	> 90%	≥ 10 µM	≥ 10 °C	< 10 nM							CNC(=O)CN1CC[C@@H](Nc2nccn3c(SC(F)(F)F)c(C#CCNc4cc(C(=O)NC)ccc4OC)cc23)[C@@H](F)C1 [Example 352]	< 750 nM	
< 750 nM		< 750 nM	> 90%	≥ 10 µM	≥ 10 °C	< 10 nM							CNC(=O)c1ccc(OC)c(NCC#Cc2cc3c(N[C@@H]4CCN(CC#N)C[C@@H]4F)nccn3c2SC(F)(F)F)c1 [Example 353]	< 750 nM	
< 750 nM		< 750 nM	> 90%	5 to 8 µM	≥ 10 °C	< 10 nM							CNC(=O)c1ccc(NCC#Cc2cc3c(N[C@@H]4CCNC[C@@H]4F)cccn3c2SC(F)(F)F)c(OC)c1 [Example 354]	< 750 nM	
< 750 nM		< 750 nM	> 90%	5 to 8 µM	≥ 10 °C	< 10 nM							CNC(=O)c1ccc(NCC#Cc2cc3c(N[C@@H]4CCN(C)C[C@@H]4F)cccn3c2SC(F)(F)F)cc1 [Example 357]	< 750 nM	
< 750 nM		< 750 nM	> 90%	≥ 10 µM	≥ 10 °C	< 10 nM							COc1ccc(C(=O)NC[C@H](C)O)cc1NCC#Cc1cc2c(N[C@@H]3CCN(C)C[C@@H]3F)nccn2c1SC(F)(F)F [Example 358]	< 750 nM	
< 750 nM		< 750 nM	> 90%	≥ 10 µM	≥ 10 °C	< 10 nM							COc1ccc(C(=O)NC[C@@H](C)O)cc1NCC#Cc1cc2c(N[C@@H]3CCN(C)C[C@@H]3F)nccn2c1SC(F)(F)F [Example 359]	< 750 nM	
						10 to 100 nM	> 3000 nM	> 3000 nM	< 70%	≥ 10 µM	5 to 10 °C	5 to 10 °C	CN1CC[C@@H](Nc2cccn3c(SC(F)(F)F)c(-c4noc(CNC(=O)C5CC5)n4)nc23)[C@@H](F)C1 [Example 458]		> 3000 nM
